# Laboratory results as given in publication PMC8707461, “In Vitro and In Vivo Inhibition of MATE1 by Tyrosine Kinase Inhibitors” (Pharmaceutics, 2021).
# What was measured:
# MATE1 [1] = target: T1, MATE1 (Homo sapiens, UniProt Q96FL8); assay: [14C]TEA uptake in HEK293 cells overexpressing human MATE1; conditions: human
# T1 sequence (Q96FL8 1-570): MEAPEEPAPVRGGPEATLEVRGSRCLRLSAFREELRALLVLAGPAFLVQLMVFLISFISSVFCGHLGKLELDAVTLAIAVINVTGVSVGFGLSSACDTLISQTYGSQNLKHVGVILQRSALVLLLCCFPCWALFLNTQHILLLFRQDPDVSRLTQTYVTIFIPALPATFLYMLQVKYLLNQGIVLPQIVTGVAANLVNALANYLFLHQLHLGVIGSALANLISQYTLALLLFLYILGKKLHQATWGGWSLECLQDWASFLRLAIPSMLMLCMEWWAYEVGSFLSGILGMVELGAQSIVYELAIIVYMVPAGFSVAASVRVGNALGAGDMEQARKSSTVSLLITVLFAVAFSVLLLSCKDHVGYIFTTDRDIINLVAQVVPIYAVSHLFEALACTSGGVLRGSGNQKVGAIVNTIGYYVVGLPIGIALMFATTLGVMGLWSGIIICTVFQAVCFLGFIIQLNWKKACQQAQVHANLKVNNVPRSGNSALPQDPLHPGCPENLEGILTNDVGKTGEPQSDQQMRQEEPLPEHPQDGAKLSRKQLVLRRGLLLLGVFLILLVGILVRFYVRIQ
# Procedure: Uptake experiments in HEK293 cells overexpressing mouse (m) and human (h) OCT2 or MATE1 were performed with radiolabeled tetraethylammonium (TEA) as the model substrate, using standard methods in the presence or absence of TKIs. The cell culture and uptake conditions for cells expressing mMATE1 or hMATE1 were described previously. […] Since the inhibitory potential of various xenobiotics against OCT2 and MATE1 is dependent on preincubation with perpetrator drugs, a 15-min preincubation period with the TKIs was employed unless stated otherwise. All results were normalized to uptake values in cells transfected with an empty vector or DMSO-treated groups.
# MATE1-overexpressed cells were pre-incubated with transport media containing 30 mM ammonium chloride for 20 min at 37 °C following previously published protocol (pH 7.4 for hMATE1 [17, 18, 19] and pH 8.4 for mMATE1 [20, 21]) to ensure interactions can be evaluated between outward-facing MATE1 and substrate uptake before adding inhibitors. Then, preincubation media was removed and cells were incubated with transport media (NH4Cl free) containing radiolabeled compounds. […] The uptake of TEA and metformin was measured by liquid scintillation counting, as described previously. For uptake studies involving platinum drugs, cells were collected with TrypLE, and the pellets were lysed overnight in 0.2% nitric acid. After sonication, total platinum levels were determined by flameless atomic absorption spectrometry.
# MATE1 [2] = conditions: publicly available information; ref FDA/EMA or supplement refs 1-8; cited from earlier work
# [3] = HEK293 cells overexpressing human MATE1, pH 7.4, probe [14C]TEA (tetraethylammonium), 2 µM
Compound,inhibition at 10 µM (MATE1 [1]; [3]) [%],IC50 (MATE1 [2]) [µM],inhibition at 10 µM (MATE1 [1]; pH 7.4) [%]
CC#CC(=O)N1CCC[C@H]1c1nc(-c2ccc(C(=O)Nc3ccccn3)cc2)c2c(N)nccn12 [Acalabrutinib],43.3,–,–
CN(C)C/C=C/C(=O)Nc1cc2c(Nc3ccc(F)c(Cl)c3)ncnc2cc1O[C@H]1CCOC1 [Afatinib],89.6,< 10,–
CCc1cc2c(cc1N1CCC(N3CCOCC3)CC1)C(C)(C)c1[nH]c3cc(C#N)ccc3c1C2=O [Alectinib],0,–,–
Cn1cc(-c2cc3c(N4CCN(c5ncc([C@@](C)(N)c6ccc(F)cc6)cn5)CC4)ncnn3c2)cn1 [Avapritinib],78.6,–,–
CNC(=O)c1ccccc1Sc1ccc2c(/C=C/c3ccccn3)n[nH]c2c1 [Axitinib],60.8,–,–
CCS(=O)(=O)N1CC(CC#N)(n2cc(-c3ncnc4[nH]ccc34)cn2)C1 [Baricitinib],55.5,–,–
Cn1cnc2c(F)c(Nc3ccc(Br)cc3F)c(C(=O)NOCCO)cc21 [Binimetinib],47.6,> 50,–
COc1cc(N2CCC(N3CCN(C)CC3)CC2)ccc1Nc1ncc(Cl)c(Nc2ccccc2P(C)(C)=O)n1 [Brigatinib],–,–,95.9
COc1cc2nccc(Oc3ccc(NC(=O)C4(C(=O)Nc5ccc(F)cc5)CC4)cc3)c2cc1OC [Cabozantinib],95.8,< 10,–
CNC(=O)c1ccc(-c2cnc3ncc(Cc4ccc5ncccc5c4)n3n2)cc1F [Capmatinib],99.7,–,–
Cc1cc(Nc2ncc(Cl)c(Nc3ccccc3S(=O)(=O)C(C)C)n2)c(OC(C)C)cc1C1CCNCC1 [Ceritinib],96.1,–,–
O=C(c1ccc(F)c(F)c1Nc1ccc(I)cc1F)N1CC(O)([C@@H]2CCCCN2)C1 [Cobimetinib],83.3,–,–
C[C@@H](Oc1cc(-c2cnn(C3CCNCC3)c2)cnc1N)c1c(Cl)ccc(F)c1Cl [Crizotinib],–,[…],96.8
CC(C)(C)c1nc(-c2cccc(NS(=O)(=O)c3c(F)cccc3F)c2F)c(-c2ccnc(N)n2)s1 [Dabrafenib],72.1,–,–
COc1cc2ncnc(Nc3ccc(F)c(Cl)c3)c2cc1NC(=O)/C=C/CN1CCCCC1 [Dacomitinib],91.6,–,–
COC(=O)N[C@@H](C)CNc1nccc(-c2cn(C(C)C)nc2-c2cc(Cl)cc(NS(C)(=O)=O)c2F)n1 [Encorafenib],66.1,–,–
CN1CCN(c2ccc(C(=O)Nc3n[nH]c4ccc(Cc5cc(F)cc(F)c5)cc34)c(NC3CCOCC3)c2)CC1 [Entrectinib],99.6,–,–
C#Cc1cccc(Nc2ncnc3cc(OCCOC)c(OCCOC)cc23)c1 [Erlotinib],–,[…],87
Cc1cnc(Nc2ccc(OCCN3CCCC3)cc2)nc1Nc1cccc(S(=O)(=O)NC(C)(C)C)c1 [Fedratinib],98.6,–,–
COc1cc(Nc2ncc(F)c(Nc3ccc4c(n3)N(COP(=O)(O)O)C(=O)C(C)(C)O4)n2)cc(OC)c1OC [Fostamatinib],40.2,–,–
COc1cc2ncnc(Nc3ccc(F)c(Cl)c3)c2cc1OCCCN1CCOCC1 [Gefitinib],91.8,–,–
CCc1nc(C(N)=O)c(Nc2ccc(N3CCC(N4CCN(C)CC4)CC3)c(OC)c2)nc1NC1CCOCC1 [Gilteritinib],96.7,–,–
CS(=O)(=O)CCNCc1ccc(-c2ccc3ncnc(Nc4ccc(OCc5cccc(F)c5)c(Cl)c4)c3c2)o1 [Lapatinib],–,> 10,38.7
O=C(Nc1cnn2ccc(N3CCC[C@@H]3c3cc(F)ccc3F)nc12)N1CC[C@H](O)C1 [Larotrectinib],21.1,–,–

Compound,inhibition at 10 µM (MATE1 [1]; [3]) [%],IC50 (MATE1 [2]) [µM],inhibition at 10 µM (MATE1 [1]; pH 7.4) [%]
COc1cc2nccc(Oc3ccc(NC(=O)NC4CC4)c(Cl)c3)c2cc1C(N)=O [Lenvatinib],87.7,–,–
C[C@H]1Oc2cc(cnc2N)-c2c(nn(C)c2C#N)CN(C)C(=O)c2ccc(F)cc21 [Lorlatinib],61.8,–,–
CO[C@@H]1[C@H](N(C)C(=O)c2ccccc2)C[C@H]2O[C@]1(C)n1c3ccccc3c3c4c(c5c6ccccc6n2c5c31)C(=O)NC4 [Midostaurin],50,–,–
CCOc1cc2ncc(C#N)c(Nc3ccc(OCc4ccccn4)c(Cl)c3)c2cc1NC(=O)/C=C/CN(C)C [Neratinib],90.9,–,–
COC(=O)c1ccc2c(c1)NC(=O)/C2=C(\Nc1ccc(N(C)C(=O)CN2CCN(C)CC2)cc1)c1ccccc1 [Nintedanib],95.3,–,–
C=CC(=O)Nc1cccc(Oc2nc(Nc3ccc(N4CCN(C)CC4)cc3)nc3ccsc23)c1 [Olmutinib],97.7,–,–
C=CC(=O)Nc1cc(Nc2nccc(-c3cn(C)c4ccccc34)n2)c(OC)cc1N(C)CCN(C)C [Osimertinib],94.1,–,–
Cc1ccc(Nc2nccc(N(C)c3ccc4c(C)n(C)nc4c3)n2)cc1S(N)(=O)=O [Pazopanib],90.2,< 0.47,–
CCN1C(=O)N(c2c(F)c(OC)cc(OC)c2F)Cc2cnc3[nH]c(CN4CCOCC4)cc3c21 [Pemigatinib],80.1,–,–
FC(F)(F)c1ccc(CNc2ccc(Cc3c[nH]c4ncc(Cl)cc34)cn2)cn1 [Pexidartinib],75.6,–,–
Cc1ccc(C(=O)Nc2ccc(CN3CCN(C)CC3)c(C(F)(F)F)c2)cc1C#Cc1cnc2cccnn12 [Ponatinib],–,< 10,84.9
CO[C@]1(C(=O)N[C@@H](C)c2ccc(-n3cc(F)cn3)nc2)CC[C@H](c2nc(C)cc(Nc3cc(C)[nH]n3)n2)CC1 [Pralsetinib],94.5,–,–
Cc1cn(-c2cc(NC(=O)c3ccc(C)c(Nc4nccc(-c5cnccn5)n4)c3)cc(C(F)(F)F)c2)cn1 [Radotinib],73,–,–
CCn1c(=O)c(-c2cc(NC(=O)Nc3ccccc3)c(F)cc2Br)cc2cnc(NC)cc21 [Ripretinib],51.9,–,–
N#CC[C@H](C1CCCC1)n1cc(-c2ncnc3[nH]ccc23)cn1 [Ruxolitinib],63,< 10,–
COc1ccc(CN2C3CC2CN(c2ccc(-c4cc(OCC(C)(C)O)cn5ncc(C#N)c45)cn2)C3)cn1 [Selpercatinib],97.4,0.66,–
COc1cc2nccc(Oc3ccc(NC(=O)Nc4cc(C)on4)c(Cl)c3)c2cc1OC [Tivozanib],90.3,–,–
C[C@@H]1CCN(C(=O)CC#N)C[C@@H]1N(C)c1ncnc2[nH]ccc12 [Tofacitinib],90.4,~10,–
CC(=O)Nc1cccc(-n2c(=O)n(C3CC3)c(=O)c3c(Nc4ccc(I)cc4F)n(C)c(=O)c(C)c32)c1 [Trametinib],96.1,0.06,–
Cc1cc(Nc2ncnc3ccc(NC4=NC(C)(C)CO4)cc23)ccc1Oc1ccn2ncnc2c1 [Tucatinib],96.3,–,–
CC[C@@H]1CN(C(=O)NCC(F)(F)F)C[C@@H]1c1cnc2cnc3[nH]ccc3n12 [Upadacitinib],77.2,–,–
COc1cc2c(Nc3ccc(Br)cc3F)ncnc2cc1OCC1CCN(C)CC1 [Vandetanib],99.5,< 10,–
CCCS(=O)(=O)Nc1ccc(F)c(C(=O)c2c[nH]c3ncc(-c4ccc(Cl)cc4)cc23)c1F [Vemurafenib],34.1,–,–
C=CC(=O)N1CCC([C@@H]2CCNc3c(C(N)=O)c(-c4ccc(Oc5ccccc5)cc4)nn32)CC1 [Zanubrutinib],94.5,–,–
